{"source": "patent US7407667B2", "about": "“Pesticidal preparations comprising copolymers” (Clariant Produkte (Deutschland) GmbH, priority 2001, dated 2008)", "format_in_all_cases": "in vivo", "key": {"[1]": {"tested_on": "Echinochloa crus-galli (ECHCG)", "test": "Greenhouse herbicidal action of glyphosate test formulations, plant growth assessed on a % scale", "conditions": "copolymer 600 g/ha where named, 300 l/ha, after 21 days at 20° C.", "description": "(§1) Test formulations were prepared with in each case 200 g, 300 g and 500 g of glyphosate and in each case 600 g of the copolymers I to V in 300 l of water. The data by weight refer to 100% active ingredient and 100% adjuvant. An amount of the formulation corresponding to the ratio 300 l/ha was applied in a greenhouse to the plant species Abutilon theophrasti (ABUTH), Sesbania exaltata (SEBEX), Pharbitis purpurea (PHBPU), Galium aparine (GALAP), Amaranthus retroflexus (AMARE) and Echinochloa crus-galli (ECHCG), and, after 21 days at 20° C., the plant growth was assessed according to a % scale.\n(§2) 0% means no effect and 100% means complete destruction of the types of plant."}, "[2]": {"tested_on": "Pharbitis purpurea (PHBPU)", "test": "Greenhouse herbicidal action of glyphosate test formulations, plant growth assessed on a % scale", "conditions": "copolymer 600 g/ha where named, 300 l/ha, after 21 days at 20° C.", "description": "as §1, §2"}, "Galium aparine (GALAP)": {"tested_on": "Galium aparine (GALAP)", "test": "Greenhouse herbicidal action of glyphosate test formulations, plant growth assessed on a % scale", "conditions": "copolymer 600 g/ha where named, 300 l/ha, after 21 days at 20° C.", "description": "as §1, §2"}, "[3]": {"tested_on": "Abutilon theophrasti (ABUTH)", "test": "Greenhouse herbicidal action of glyphosate test formulations, plant growth assessed on a % scale", "conditions": "copolymer 600 g/ha where named, 300 l/ha, after 21 days at 20° C.", "description": "as §1, §2"}, "[4]": {"tested_on": "Amaranthus retroflexus (AMARE)", "test": "Greenhouse herbicidal action of glyphosate test formulations, plant growth assessed on a % scale", "conditions": "copolymer 600 g/ha where named, 300 l/ha, after 21 days at 20° C.", "description": "as §1, §2"}, "[5]": {"tested_on": "Sesbania exaltata (SEBEX)", "test": "Greenhouse herbicidal action of glyphosate test formulations, plant growth assessed on a % scale", "conditions": "copolymer 600 g/ha where named, 300 l/ha, after 21 days at 20° C.", "description": "as §1, §2"}, "[6]": {"tested_on": "SEBEX, AMARE, GALAP, ABUTH, ECHCG, PHBPU (Total)", "test": "Greenhouse herbicidal action of glyphosate test formulations, total over the six plant species", "conditions": "copolymer 600 g/ha where named", "description": "as §1, §2"}}}
{"compound": "O=C(O)CNCP(=O)(O)O", "note": "[Glyphosate, N-phosphonomethylglycine]", "values": [{"measurement": "herbicidal action ECHCG", "setting": "[1]; glyphosate 200 g/ha", "value": 15, "unit": "%"}, {"measurement": "herbicidal action ECHCG", "setting": "[1]; glyphosate 300 g/ha", "value": 20, "unit": "%"}, {"measurement": "herbicidal action ECHCG", "setting": "[1]; glyphosate 500 g/ha", "value": 40, "unit": "%"}, {"measurement": "herbicidal action PHBPU", "setting": "[2]; glyphosate 200 g/ha", "value": 10, "unit": "%"}, {"measurement": "herbicidal action PHBPU", "setting": "[2]; glyphosate 300 g/ha", "value": 20, "unit": "%"}, {"measurement": "herbicidal action PHBPU", "setting": "[2]; glyphosate 500 g/ha", "value": 40, "unit": "%"}, {"measurement": "herbicidal action GALAP", "setting": "Galium aparine (GALAP); glyphosate 200 g/ha", "value": 5, "unit": "%"}, {"measurement": "herbicidal action GALAP", "setting": "Galium aparine (GALAP); glyphosate 300 g/ha", "value": 20, "unit": "%"}, {"measurement": "herbicidal action GALAP", "setting": "Galium aparine (GALAP); glyphosate 500 g/ha", "value": 40, "unit": "%"}, {"measurement": "herbicidal action ABUTH", "setting": "[3]; glyphosate 200 g/ha", "value": 0, "unit": "%"}, {"measurement": "herbicidal action ABUTH", "setting": "[3]; glyphosate 300 g/ha", "value": 10, "unit": "%"}, {"measurement": "herbicidal action ABUTH", "setting": "[3]; glyphosate 500 g/ha", "value": 15, "unit": "%"}, {"measurement": "herbicidal action AMARE", "setting": "[4]; glyphosate 200 g/ha", "value": 20, "unit": "%"}, {"measurement": "herbicidal action AMARE", "setting": "[4]; glyphosate 300 g/ha", "value": 45, "unit": "%"}, {"measurement": "herbicidal action AMARE", "setting": "[4]; glyphosate 500 g/ha", "value": 65, "unit": "%"}, {"measurement": "herbicidal action SEBEX", "setting": "[5]; glyphosate 200 g/ha, 0% no effect, 100% complete destruction", "value": 10, "unit": "%"}, {"measurement": "herbicidal action SEBEX", "setting": "[5]; glyphosate 300 g/ha", "value": 15, "unit": "%"}, {"measurement": "herbicidal action SEBEX", "setting": "[5]; glyphosate 500 g/ha", "value": 30, "unit": "%"}, {"measurement": "herbicidal action Total", "setting": "[6]; glyphosate 200 g/ha", "value": 10, "unit": "%"}, {"measurement": "herbicidal action Total", "setting": "[6]; glyphosate 300 g/ha", "value": 22, "unit": "%"}, {"measurement": "herbicidal action Total", "setting": "[6]; glyphosate 500 g/ha", "value": 38, "unit": "%"}]}
